Measured values published in ChEMBL document CHEMBL4665657, “2-Phenyl-8-(1-phenylallyl)-chromenone compounds have a pan-PPAR modulator pharmacophore” (Bioorg Med Chem, 2019).
Active and inactive are the calls of the source. The calls are words filed in the database; no cut-off is given here.

How the values were obtained:
[1] = test system: BMMSC; test: Induction of adipogenesis in human BMMSC cells assessed as increase in HMGCS2 mRNA at 1 uM incubated for 3 days by qRT-PCR analysis; format: functional, cell-based; settings: time 3.0 day
[2] = test system: BMMSC; test: Induction of adipogenesis in human BMMSC cells assessed as increase in ANGPTL4 mRNA at 1 uM incubated for 3 days by qRT-PCR analysis; format: functional, cell-based; settings: time 3.0 day
[3] = test system: BMMSC; test: Induction of adipogenesis in human BMMSC cells assessed as increase in HMGCR mRNA at 1 uM incubated for 3 days by qRT-PCR analysis; format: functional, cell-based; settings: time 3.0 day
[4] = test system: BMMSC; test: Induction of adipogenesis in human BMMSC cells assessed as increase in ACOX1 mRNA at 1 uM incubated for 3 days by qRT-PCR analysis; format: functional, cell-based; settings: time 3.0 day
[5] = test system: BMMSC; test: Induction of adipogenesis in human BMMSC cells assessed as increase in ACACB mRNA at 1 uM incubated for 3 days by qRT-PCR analysis; format: functional, cell-based; settings: time 3.0 day
[6] = test system: BMMSC; test: Induction of adipogenesis in human BMMSC cells assessed as increase in adiponectin secretion at 10 uM incubated for 5 days by ELISA; format: functional, cell-based; settings: time 5.0 day
[7] = test system: BMMSC; test: Induction of adipogenesis in human BMMSC cells assessed as increase in adiponectin secretion incubated for 5 days by ELISA; format: functional, cell-based; settings: time 5.0 day
[8] = test system: BMMSC; test: Induction of adipogenesis in human BMMSC cells assessed as lipid droplet formation at 10 uM incubated for 5 days by oil red O staining based inverted microscopy analysis; format: functional, cell-based; settings: time 5.0 day
[9] = test system: BMMSC; test: Induction of adipogenesis in human BMMSC cells assessed as increase in ACACB mRNA at 10 uM incubated for 3 days by qRT-PCR analysis; format: functional, cell-based; settings: time 3.0 day
[10] = test system: BMMSC; test: Induction of adipogenesis in human BMMSC cells assessed as increase in HMGCS2 mRNA at 10 uM incubated for 3 days by qRT-PCR analysis; format: functional, cell-based; settings: time 3.0 day
[11] = test system: BMMSC; test: Induction of adipogenesis in human BMMSC cells assessed as increase in ACOX1 mRNA at 10 uM incubated for 3 days by qRT-PCR analysis; format: functional, cell-based; settings: time 3.0 day
[12] = test system: BMMSC; test: Induction of adipogenesis in human BMMSC cells assessed as increase in HMGCR mRNA at 10 uM incubated for 3 days by qRT-PCR analysis; format: functional, cell-based; settings: time 3.0 day
[13] = biological target: T1, Peroxisome proliferator-activated receptor alpha (Homo sapiens, UniProt Q07869); test: Binding affinity to PPARalpha (unknown origin) by TR-FRET assay
T1 sequence (Q07869 whole entry): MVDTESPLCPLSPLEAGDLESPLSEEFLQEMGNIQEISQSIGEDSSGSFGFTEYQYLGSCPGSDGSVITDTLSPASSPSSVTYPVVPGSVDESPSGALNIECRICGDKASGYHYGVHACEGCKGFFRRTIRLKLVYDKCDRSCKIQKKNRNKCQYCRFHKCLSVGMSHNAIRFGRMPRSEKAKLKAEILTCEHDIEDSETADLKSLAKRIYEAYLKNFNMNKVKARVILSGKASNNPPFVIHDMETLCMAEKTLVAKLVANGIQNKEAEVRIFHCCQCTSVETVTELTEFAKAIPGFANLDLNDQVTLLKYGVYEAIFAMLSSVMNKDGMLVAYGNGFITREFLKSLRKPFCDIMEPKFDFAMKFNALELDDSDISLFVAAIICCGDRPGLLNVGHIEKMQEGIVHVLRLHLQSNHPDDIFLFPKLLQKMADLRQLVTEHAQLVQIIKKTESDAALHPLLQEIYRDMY

[14] = Cytotoxicity against human BM-MSC cells assessed as cell viability at 100 uM incubated for 72 hrs by WST-8 assay; format: cell-based, BMMSC; settings: read-out: Activity
[15] = biological target: T2, Peroxisome proliferator-activated receptor delta (Homo sapiens, UniProt Q03181); test: Binding affinity to PPARdelta (unknown origin) by TR-FRET assay
T2 sequence (Q03181 whole entry): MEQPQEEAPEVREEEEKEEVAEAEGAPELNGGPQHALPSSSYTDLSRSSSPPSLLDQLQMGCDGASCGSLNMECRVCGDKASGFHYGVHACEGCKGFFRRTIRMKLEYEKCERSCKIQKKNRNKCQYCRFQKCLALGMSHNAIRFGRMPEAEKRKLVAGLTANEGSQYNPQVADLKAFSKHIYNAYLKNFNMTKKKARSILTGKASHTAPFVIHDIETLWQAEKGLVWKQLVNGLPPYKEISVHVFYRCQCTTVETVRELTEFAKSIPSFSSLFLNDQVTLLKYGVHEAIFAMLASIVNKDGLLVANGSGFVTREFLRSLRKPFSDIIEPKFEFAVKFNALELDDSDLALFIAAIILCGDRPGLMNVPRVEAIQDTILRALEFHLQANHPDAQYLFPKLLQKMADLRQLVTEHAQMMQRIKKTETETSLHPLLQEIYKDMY

[16] = test system: A549; test: Cytotoxicity against human A549 cells assessed as reduction in cell viability incubated for 72 hrs by WST-8 assay; format: functional, cell-based; settings: A549, 72 h
[17] = test system: PC-3; test: Cytotoxicity against human PC-3 cells assessed as reduction in cell viability incubated for 72 hrs by WST-8 assay; format: functional, cell-based; settings: PC-3, 72 h
[18] = biological target: T3, Peroxisome proliferator-activated receptor gamma (Homo sapiens, UniProt P37231); test: Binding affinity to PPARgamma (unknown origin) by TR-FRET assay
T3 sequence (P37231 whole entry): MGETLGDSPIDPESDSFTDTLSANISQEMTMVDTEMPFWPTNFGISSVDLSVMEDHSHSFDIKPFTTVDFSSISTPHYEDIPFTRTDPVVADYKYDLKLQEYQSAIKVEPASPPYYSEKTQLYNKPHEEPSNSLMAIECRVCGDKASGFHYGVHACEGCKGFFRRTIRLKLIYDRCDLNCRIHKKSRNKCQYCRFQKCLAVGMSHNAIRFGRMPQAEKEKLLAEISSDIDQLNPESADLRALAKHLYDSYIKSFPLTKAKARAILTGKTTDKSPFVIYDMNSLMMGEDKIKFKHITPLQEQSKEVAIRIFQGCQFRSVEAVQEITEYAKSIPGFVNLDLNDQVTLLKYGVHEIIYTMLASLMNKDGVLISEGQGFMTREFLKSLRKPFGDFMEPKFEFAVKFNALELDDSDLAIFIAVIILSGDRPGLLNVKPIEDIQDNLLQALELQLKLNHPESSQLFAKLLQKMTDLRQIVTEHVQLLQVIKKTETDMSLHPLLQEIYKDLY

Q: With `Cc1cc(SCc2sc(-c3ccc(C(F)(F)F)cc3)nc2C)ccc1OCC(=O)O` as the compound, how does the Activity [1] read?
A: Its Activity is “inactive”.

Q: And the Activity [2]?
A: Its Activity is “Active”.

Q: What about the Activity [3] of the same compound?
A: Its Activity is “Active”.

Q: And the Activity [4]?
A: The Activity was “inactive”.

Q: And the Activity [5]?
A: The Activity was “Active”.

Q: With `C=CC(c1ccc(OC)cc1)c1c(O)cc(O)c2c(=O)cc(-c3ccccc3)oc12` (stereo unspecified) as the compound, how does the Activity [6] read?
A: The Activity was “Active”.

Q: What about the Activity [7] of the same compound?
A: Its Activity is “Dose-dependent effect”.

Q: What about the Activity [8] of the same compound?
A: Its Activity is “Active”.

Q: For `Cc1cccc(Nc2cc(Cl)nc(SCC(=O)O)n2)c1C`, which Activity [9] is on record?
A: Its Activity is “Active”.

Q: And the Activity [10]?
A: Its Activity is “Active”.

Q: And the Activity [11]?
A: The Activity was “Active”.

Q: And the Activity [12]?
A: Its Activity is “Active”.

Q: With `C=CC(c1ccc(O)c(OC)c1)c1c(O)cc(O)c2c(=O)cc(-c3ccccc3)oc12` (stereo unspecified) as the compound, how does the Activity [6] read?
A: The Activity was “Active”.

Q: And the Activity [7]?
A: Its Activity is “Dose-dependent effect”.

Q: And the Ki [13]?
A: The Ki was 2410 nM.

Q: And the Activity [8]?
A: Its Activity is “Active”.

Q: And the viability at 72 h, 100 µM [14]?
A: The viability at 72 h, 100 µM was 57%.

Q: And the Ki [15]?
A: The Ki was 2480 nM.

Q: What about the IC50 [16] of the same compound?
A: The IC50 was 55500 nM.

Q: What about the IC50 [17] of the same compound?
A: The IC50 was 30600 nM.

Q: And the Ki [18]?
A: The Ki was 2530 nM.
